Reference: patent US10968266B2, “GIP peptide analogues” (University of Copenhagen, priority 2014, dated 2021)

How the values were obtained:
[1] = tested on: perfused rat pancreata; experiment: Somatostatin secretion from isolated perfused rat pancreas; details: 1 nM hGIP or 100 nM GIP(3-30), 7 mM glucose
Experimental: Non-fasted rats were anaesthetized with an IP injection of Hypnorm/Dormicum and the pancreas was dissected and perfused in situ. […] All other aortic branches were ligated. The venous effluent was collected for 1 min intervals via an obstructing cannula inserted into the portal vein, and stored at −20° C. until analysis. The flow rate was kept constant at 4 ml/min. The perfusion medium was continuously gassed with a 95% O2/5% CO2 mixture to achieve pH 7.4, and maintained at 37° C. during the entire experiment.
Pancreatic somatostatin concentrations in venous effluent were analysed by RIA. Somatostatin immunoreactivity was determined using antiserum 1758, which was raised in rabbits against synthetic cyclic somatostatin and recognizes both somatostatin-14 and somatostatin-28 [37, 38].

[2] = target: T1, human GIP receptor (Homo sapiens, UniProt P48546); experiment: Competitive binding assay with 125I-labelled GIP radioligands, COS-7 cells transfected with human GIP receptor (Example 7); details: for Competitive binding fold (fold change of GIP(1-30)NH2 affinity): radioligand 125I-GIP(1-42); for Competitive binding fold (fold change of GIP(1-30)NH2 affinity) / fold change GIP(1-30)NH2: relative to GIP(1-30)NH2
T1 construct: host or cells: COS-7 cells, transient transfection (calcium phosphate precipitation), pCMV-Script vector
T1 sequence (P48546 22-466): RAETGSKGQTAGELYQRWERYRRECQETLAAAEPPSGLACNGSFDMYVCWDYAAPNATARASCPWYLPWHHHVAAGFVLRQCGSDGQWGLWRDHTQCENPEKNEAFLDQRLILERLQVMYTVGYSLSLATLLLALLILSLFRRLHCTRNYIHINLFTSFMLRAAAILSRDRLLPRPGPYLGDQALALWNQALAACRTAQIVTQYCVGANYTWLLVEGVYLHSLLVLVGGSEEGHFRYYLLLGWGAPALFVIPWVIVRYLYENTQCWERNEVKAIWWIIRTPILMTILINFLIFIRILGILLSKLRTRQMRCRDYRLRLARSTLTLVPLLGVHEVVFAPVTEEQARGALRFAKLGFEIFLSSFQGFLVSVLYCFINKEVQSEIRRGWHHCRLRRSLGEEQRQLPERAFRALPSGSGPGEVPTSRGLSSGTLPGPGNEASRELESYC
Experimental: Transfection of COS-7 cells was performed using the calcium phosphate precipitation method with chloroquine addition as previously described (Kissow et al., 2012). […] Nonspecific binding was determined as the binding of radioligand to untransfected cells. All determinations were made in duplicates, and all experiments repeated at least three times. The samples were analyzed for radioactivity using a Wallac Wizard 1470 Gamma Counter (GMI Inc., Minnesota, USA). The number “n” refers to individual experiments with separate transfections although from same cell line. IC50, EC50, and Kd/Ki values were determined by nonlinear regression. […] Statistical analyses (unpaired t-tests) of two parameters were also performed with GraphPad Prism 6.0. The calculations of Bmax and Ki values were based on the formula for one class of binding sites in homologous competition binding studies and the Cheng Prussoffs formula, respectively (DeBlasi et al., 1989). Kd is the dissociation constant determined by homologous receptor binding. […] Schild plots were performed with log (DR-1) (ordinate) and log(antagonist concentration) (abscissa) to estimate the slopes and Ki values (Lazareno and Birdsall, 1993).

[3] = target: T1, human GIP receptor; experiment: cAMP accumulation assay (agonism, antagonism, Schild analysis), COS-7 cells transfected with human GIP receptor (Example 7); format: cell-based; details: for Slope of Schild plot: GIP(1-42) dose-response curves with fixed antagonist concentrations
Experimental: COS-7 cells were grown in 10% CO2 and at 37° C. in Dulbecco's modified Eagle's medium 1885 supplemented with 10% fetal bovine serum, 2 mM glutamine, 180 units/ml penicillin, and 45 µg/ml streptomycin. Transfection of COS-7 cells was performed using the calcium phosphate precipitation method with chloroquine addition as previously described (Kissow et al., 2012).
Two days after transfection the cells were washed once with HEPES buffered saline (HBS) and incubated with HBS and 0.5 mM 3-isobutyl-1-methylxanthine (IBMX) for 30 minutes at 37° C. […] After ligand incubation, the HitHunter™ cAMP XS assay (an enzyme fragment complementation-based assay, DiscoveRx, Birmingham, United Kingdom) was carried out according to the manufacturer's instructions. All experiments were made in duplicates, and repeated at least three times. Luminescence was measured by Perkin Elmer™ EnVision 2104 Multilabled reader (Skovlunde, Danmark). In brief, the cells were lysed in the wells, the enzyme fragment-cAMP-antibody, an enzyme fragment and the enzyme substrates were added followed by 1 hour incubation at room temperature on shaker tray. The other enzyme fragment was added to the wells and incubated for 4 hours on shaker tray followed by measurements of luminescence. The ligand-induced cAMP competed with the binding of antibody to the first enzyme fragment and left the two fragments to fuse. The enzyme complex hydrolyzed the substrates and yielded luminescence. The number “n” refers to individual experiments with separate transfections although from same cell line.
IC50, EC50, and Kd/Ki values were determined by nonlinear regression. These, as well as maximal binding capacity (Bmax) values and Schild plot analysis were carried out with the GraphPad Prism 6.0 software (GraphPad, San Diego, Calif., USA) and Microsoft Excel™. Statistical analyses (unpaired t-tests) of two parameters were also performed with GraphPad Prism 6.0. The calculations of Bmax and Ki values were based on the formula for one class of binding sites in homologous competition binding studies and the Cheng Prussoffs formula, respectively (DeBlasi et al., 1989). Kd is the dissociation constant determined by homologous receptor binding. […] Schild plots were performed with log (DR-1) (ordinate) and log(antagonist concentration) (abscissa) to estimate the slopes and Ki values (Lazareno and Birdsall, 1993).

[4] = inhibition of GIP(1-42) at 50-80% of max receptor activation

Structure (SMILES): CC[C@H](C)[C@H](NC(=O)[C@H](CO)NC(=O)[C@H](Cc1ccc(O)cc1)NC(=O)[C@H](CC(=O)O)NC(=O)[C@H](CO)NC(=O)[C@@H](NC(=O)[C@H](Cc1ccccc1)NC(=O)[C@@H](NC(=O)CNC(=O)[C@H](CCC(=O)O)NC(=O)[C@H](C)NC(=O)[C@@H](N)Cc1ccc(O)cc1)[C@@H](C)O)[C@@H](C)CC)C(=O)N[C@@H](C)C(=O)N[C@@H](CCSC)C(=O)N[C@@H](CC(=O)O)C(=O)N[C@@H](CCCCN)C(=O)N[C@H](C(=O)N[C@@H](Cc1c[nH]cn1)C(=O)N[C@@H](CCC(N)=O)C(=O)N[C@@H](CCC(N)=O)C(=O)N[C@@H](CC(=O)O)C(=O)N[C@@H](Cc1ccccc1)C(=O)N[C@H](C(=O)N[C@@H](CC(N)=O)C(=O)N[C@@H](Cc1c[nH]c2ccccc12)C(=O)N[C@@H](CC(C)C)C(=O)N[C@@H](CC(C)C)C(=O)N[C@@H](C)C(=O)N[C@@H](CCC(N)=O)C(=O)N[C@@H](CCCCN)C(=O)NCC(=O)N[C@@H](CCCCN)C(=O)N[C@@H](CCCCN)C(=O)N[C@@H](CC(N)=O)C(=O)N[C@@H](CC(=O)O)C(=O)N[C@@H](Cc1c[nH]c2ccccc12)C(=O)N[C@@H](CCCCN)C(=O)N[C@@H](Cc1c[nH]cn1)C(=O)N[C@@H](CC(N)=O)C(=O)N[C@H](C(=O)N[C@H](C(=O)N[C@@H](CCC(N)=O)C(=O)O)[C@@H](C)O)[C@@H](C)CC)C(C)C)[C@@H](C)CC [GIP(1-42)]
- Somatostatin secretion induced by the peptide alone [1]: robust somatostatin secretion

Structure (SMILES): CC[C@H](C)[C@H](NC(=O)[C@H](CO)NC(=O)[C@H](Cc1ccc(O)cc1)NC(=O)[C@H](CC(=O)O)NC(=O)[C@H](CO)NC(=O)[C@@H](NC(=O)[C@H](Cc1ccccc1)NC(=O)[C@@H](N)[C@@H](C)O)[C@@H](C)CC)C(=O)N[C@@H](C)C(=O)N[C@@H](CCSC)C(=O)N[C@@H](CC(=O)O)C(=O)N[C@@H](CCCCN)C(=O)N[C@H](C(=O)N[C@@H](Cc1c[nH]cn1)C(=O)N[C@@H](CCC(N)=O)C(=O)N[C@@H](CCC(N)=O)C(=O)N[C@@H](CC(=O)O)C(=O)N[C@@H](Cc1ccccc1)C(=O)N[C@H](C(=O)N[C@@H](CC(N)=O)C(=O)N[C@@H](Cc1c[nH]c2ccccc12)C(=O)N[C@@H](CC(C)C)C(=O)N[C@@H](CC(C)C)C(=O)N[C@@H](C)C(=O)N[C@@H](CCC(N)=O)C(=O)N[C@@H](CCCCN)C(N)=O)C(C)C)[C@@H](C)CC [GIP(5-30)NH2]
- Competitive binding fold (fold change of GIP(1-30)NH2 affinity) [2]: 6.6 fold
- Type of antagonism (Schild analysis) [3]: pure competitive antagonists
- Slope of Schild plot [3]: 1.1±0.04
- IC50 [3, 4]: 11.9 nM

Structure (SMILES): CC[C@H](C)[C@H](NC(=O)[C@H](CO)NC(=O)[C@H](Cc1ccc(O)cc1)NC(=O)[C@H](CC(=O)O)NC(=O)[C@H](CO)NC(=O)[C@@H](NC(=O)[C@@H](N)Cc1ccccc1)[C@@H](C)CC)C(=O)N[C@@H](C)C(=O)N[C@@H](CCSC)C(=O)N[C@@H](CC(=O)O)C(=O)N[C@@H](CCCCN)C(=O)N[C@H](C(=O)N[C@@H](Cc1c[nH]cn1)C(=O)N[C@@H](CCC(N)=O)C(=O)N[C@@H](CCC(N)=O)C(=O)N[C@@H](CC(=O)O)C(=O)N[C@@H](Cc1ccccc1)C(=O)N[C@H](C(=O)N[C@@H](CC(N)=O)C(=O)N[C@@H](Cc1c[nH]c2ccccc12)C(=O)N[C@@H](CC(C)C)C(=O)N[C@@H](CC(C)C)C(=O)N[C@@H](C)C(=O)N[C@@H](CCC(N)=O)C(=O)N[C@@H](CCCCN)C(N)=O)C(C)C)[C@@H](C)CC [GIP(6-30)NH2, reference compound]
- fold change GIP(1-30)NH2 ([2]; radioligand 125I-GIP(1-30)NH2): 3502 fold
- IC50 ([2]; radioligand 125I-GIP(2-30)NH2): 340 nM
- fold change GIP(1-30)NH2 ([2]; radioligand 125I-GIP(2-30)NH2): 707 fold
- IC50 ([2]; radioligand 125I-GIP(3-30)NH2): 370 nM
- fold change GIP(1-30)NH2 ([2]; radioligand 125I-GIP(3-30)NH2): 223 fold
- Slope of Schild plot [3]: 0.38±0.13
- IC50 [3, 4]: 342 nM
- cAMP accumulation logIC50 ± SEM (antagonism) ([3]; inhibition of GIP(1-42) at 50-80% of max receptor activation, given with negative sign): −6.47 ± 0.6

Structure (SMILES): CC[C@H](C)[C@H](NC(=O)[C@H](CO)NC(=O)[C@H](Cc1ccc(O)cc1)NC(=O)[C@H](CC(=O)O)NC(=O)[C@@H](N)CO)C(=O)N[C@@H](C)C(=O)N[C@@H](CCSC)C(=O)N[C@@H](CC(=O)O)C(=O)N[C@@H](CCCCN)C(=O)N[C@H](C(=O)N[C@@H](Cc1c[nH]cn1)C(=O)N[C@@H](CCC(N)=O)C(=O)N[C@@H](CCC(N)=O)C(=O)N[C@@H](CC(=O)O)C(=O)N[C@@H](Cc1ccccc1)C(=O)N[C@H](C(=O)N[C@@H](CC(N)=O)C(=O)N[C@@H](Cc1c[nH]c2ccccc12)C(=O)N[C@@H](CC(C)C)C(=O)N[C@@H](CC(C)C)C(=O)N[C@@H](C)C(=O)N[C@@H](CCC(N)=O)C(=O)N[C@@H](CCCCN)C(N)=O)C(C)C)[C@@H](C)CC [GIP(8-30)NH2]
- Competitive binding fold (fold change of GIP(1-30)NH2 affinity) [2]: 89 fold
- IC50 [3, 4]: 133 nM
